Here are results for 14 compounds from patent US20150239831A1, “INHIBITORS OF CENTRAL NERVOUS SYSTEM VASOACTIVE INHIBITORY PEPTIDE RECEPTOR 2” (The Trustees Of Columbia University In The City Of New York, priority 2012, published 2015).

What all share (assay type): cell-based
Common to all, as to parameters: expressed in transfected cells; host or cells: HEK293 cells transfected with VIPR2 in pCDNA3.1 (as described)

Test [1] deals with T1, VIPR2 (Homo sapiens, UniProt P41587).
T1 sequence (P41587 24-438): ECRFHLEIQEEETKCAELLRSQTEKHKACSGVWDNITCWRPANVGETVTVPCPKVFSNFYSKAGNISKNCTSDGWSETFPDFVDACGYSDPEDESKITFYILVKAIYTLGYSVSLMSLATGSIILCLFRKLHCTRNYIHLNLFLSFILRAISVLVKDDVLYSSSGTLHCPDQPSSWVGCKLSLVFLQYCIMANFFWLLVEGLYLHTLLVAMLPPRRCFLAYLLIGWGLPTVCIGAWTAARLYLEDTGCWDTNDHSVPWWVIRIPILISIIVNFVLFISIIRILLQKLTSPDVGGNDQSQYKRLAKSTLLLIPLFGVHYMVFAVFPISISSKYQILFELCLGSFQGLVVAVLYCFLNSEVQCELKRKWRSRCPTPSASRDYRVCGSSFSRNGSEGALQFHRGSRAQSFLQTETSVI
Description: Inhibition of VIP-induced β-arrestin recruitment (% Activity Arrestin). Particulars: Batch 1. The source says:
(§1) In a further non-limiting embodiment of the invention, the ability of a compound to inhibit VIPR2 GPCR activity may be tested, for example, using the PathHunter® eXpress β-Arrestin GPCR system (Discoverx Corporation, Fremont, Calif., US), as used by Chu et al., 2010, Molecular Pharmacol. 7795-101. In this assay, β-Arrestin is fused to the “Enzyme Acceptor” (“EA”), an N-terminal deletion mutant of β-gal, and the GPCR of interest is fused to a smaller (42 amino acids), weakly complementing portion of the β-gal enzyme (termed “ProLink™”). In cells that stably express these fusion proteins, the interaction of β-Arrestin and the GPCR following ligand stimulation forces the complementation of the two β-gal fragments resulting in the formation of a functional enzyme that converts substrate to detectable signal. In the absence of an interaction between the GPCR and β-Arrestin, the enzyme activity is low due to the low affinity of the two enzyme fragments. For example, a nucleic acid encoding VIPR2, for example hVIPR2, may be cloned into the ProLink vector (DiscoveRx) for GPCR-ProLink fusion protein production. Parental HEK293 cells that stably express β-arrestin2-β-gal-EA fusion protein (DiscoveRx) may be detached and transiently transfected with the VIPR2-containing vector using Fugene6 transfection reagent in suspension mode. Transfected cells in assay medium may be plated into test plates, for example at 15,000 cells/25 μl/well. After overnight incubation, 500 nl of an inhibitor or test inhibitor may be introduced into the test plate followed by 2 h incubation at 37° C., 5% CO2. Flash detection reagents may be added at 12.5 μl/well. After 5 min to 1 h of room-temperature incubation, the cell plates may be read on CLIPR (PerkinElmer Life and Analytical Sciences)or Acquest (Molecular Devices, Sunnyvale, Calif.) for luminescence signal.
(§2) A series of compounds were prepared using a synthetic method analogous to that set forth in Scheme 1, above, and then tested for their ability to inhibit VIP-induced cAMP elevation and β-arrestin recruitment.
(§3) A series of compounds were prepared using a synthetic method analogous to that set forth in Scheme 1, above, and then tested for their ability to inhibit VIP-induced cAMP elevation and β-arrestin recruitment, as described herein (Discoverx Corporation, Fremont, Calif., US). Compound activities were also tested in a BRET-based assay, as described herein. The results are shown below in Tables 1-4, above.
In general terms: Arrestin recruitment assays detect the binding of arrestin to an activated receptor.

Test [2] concerns the target T1, VIPR2. Description: % Activity: inhibition of VIP-induced cAMP elevation and β-arrestin recruitment (Table 2).
Text: (§4) In a further non-limiting embodiment of the invention, the ability of a compound to inhibit VIPR2 and thereby […] a VIP-induced increase in cAMP may be measured using a Homogeneous Time-Resolved Fluorescence (“HTRF® assay; Cisbio Bioassays) as used in Chu et al., 2010, Molecular Pharmacol. 7795-101. In a method as used in Chu et al., 2010, Molecular Pharmacol. 7795-101, HEK293 cells may be transfected with nucleic acid encoding VIPR2, for example human VIPR2 (“hVIPR2”), for example comprised in a vector such as pCDNA3.1 vector. Successful transformants may then be selected, for example using 800 μg/ml G418. Clonal stable cell lines may then be generated by limited dilution to single cells and then may be clonally expanded and tested for VIP -dependent cAMP response. For the cAMP assay, about 3000-15,000 cells (in about 4-25 μl) may be placed in a well of an assay plate. The next day, inhibitor or test inhibitor and VIP may be added in a volume about 1-2 percent of the initial volume. Assay plates may then be returned to a cell incubator for 30 min before addition of a one-half volume of cAMP conjugate and, relative to the amount of cAMP conjugate, an equal volume of anti-cAMP conjugate (Cisbio). After at least 1 h of room-temperature incubation, HTRF signal may be read, for example using Viewlux or EnVision (PerkinElmer Life and Analytical Sciences, Waltham, Mass.). The ratio of […] at 665 nm and 620 nm times 10,000 may be calculated and plotted.
as §1, §3

Test [3] has as its target T1, VIPR2. Nature of the test: Inhibition of VIP-induced cAMP elevation (% Activity cAMP). The note with it: Batch 1.
Text: as §4, §2, §3

As usually defined, the inhibition is the relative decrease from the control value, in per cent. Regarding `O=C(CCl)NC[C@@H](O)C[C@@H](Cc1ccccc1)C(=O)N[C@H]1c2ccccc2C[C@H]1O` [Compound A7], in test [1], the inhibition at 0.5 µM came to 9.9%, the inhibition at 1 µM was found to be 23.7% and the inhibition at 5 µM stood at 17.5%. Besides, in test [2], the “% Activity” value is on record as 16.55%. For the same compound, in test [3], the inhibition at 0.5 µM came out at 18.4%, the inhibition at 1 µM came out at 19.2% and the inhibition at 5 µM came to 15.6%.
`O=C(NC[C@@H](O)C[C@@H](Cc1ccccc1)C(=O)N[C@H]1c2ccccc2C[C@H]1O)C1CCCCCC1` [Compound A8]: in test [1], the inhibition at 0.5 µM was found to be 24.4%, the inhibition at 1 µM was found to be 16.4% and the inhibition at 5 µM worked out at 10.5%. For the same compound, the “% Activity” value in test [2] turned out to be 13.75%. Also, in test [3], the inhibition at 0.5 µM was 18.4%, the inhibition at 1 µM amounted to 17% and the inhibition at 5 µM was 17%.
With `CC(C)CS(=O)(=O)NC[C@@H](O)C[C@@H](Cc1ccccc1)C(=O)N[C@H]1c2ccccc2C[C@H]1O` [Compound A11], in test [1], the inhibition at 0.5 µM was 7.1%, the inhibition at 1 µM was 3.2% and the inhibition at 5 µM worked out at 20%. The “% Activity” value in test [2] is on record as 21.1%. In test [3], the inhibition at 0.5 µM worked out at 13.3%, the inhibition at 1 µM is 15.6% and the inhibition at 5 µM is 22.2%.
Turning to `CC(C)C(=O)NC[C@@H](O)C[C@@H](Cc1ccccc1)C(=O)N[C@H]1c2ccccc2C[C@H]1O` [Compound A13], in test [1], the inhibition at 0.5 µM was -11.8%, the inhibition at 1 µM is -10.7% and the inhibition at 5 µM was -16.3%. Also, the “% Activity” value in test [2] is −8.6%. Besides, in test [3], the inhibition at 0.5 µM stood at 0.7%, the inhibition at 1 µM was found to be 2.6% and the inhibition at 5 µM was -0.9%.
For `O=C(CCCCBr)NC[C@@H](O)C[C@@H](Cc1ccccc1)C(=O)N[C@H]1c2ccccc2C[C@H]1O` [Compound A15], in test [1], the inhibition at 0.5 µM was found to be 1.7%, the inhibition at 1 µM is -28.8% and the inhibition at 5 µM was -10.6%. Further, the “% Activity” value in test [2] is recorded as −0.6%. In test [3], the inhibition at 0.5 µM turned out to be 11.7%, the inhibition at 1 µM was 12.9% and the inhibition at 5 µM came to 9.4%.
As for `O=C(NC[C@@H](O)C[C@@H](Cc1ccccc1)C(=O)N[C@H]1c2ccccc2C[C@H]1O)c1cccnc1` [Compound A16], in test [1], the inhibition at 0.5 µM is -6.8%, the inhibition at 1 µM was -5.7% and the inhibition at 5 µM was -6.3%. Also, the “% Activity” value in test [2] was found to be 5.05%. In addition, in test [3], the inhibition at 0.5 µM is 15.2%, the inhibition at 1 µM is 13.5% and the inhibition at 5 µM came out at 16.4%.
As for `O=C(NC[C@@H](O)C[C@@H](Cc1ccccc1)C(=O)N[C@H]1c2ccccc2C[C@H]1O)c1ccccn1` [Compound A17], in test [1], the inhibition at 0.5 µM is 6.1%, the inhibition at 1 µM worked out at 32.7% and the inhibition at 5 µM amounted to 5.5%. Also, the “% Activity” value in test [2] turned out to be 12.9%. In addition, in test [3], the inhibition at 0.5 µM came out at 14.9%, the inhibition at 1 µM worked out at 17.7% and the inhibition at 5 µM amounted to 20.3%.
For `O=C(NC[C@@H](O)C[C@@H](Cc1ccccc1)C(=O)N[C@H]1c2ccccc2C[C@H]1O)c1ccncc1` [Compound A18], in test [1], the inhibition at 0.5 µM is -39.7%, the inhibition at 1 µM came out at 10.9% and the inhibition at 5 µM is -8.8%. Besides, the “% Activity” value in test [2] is on record as 6.1%. Further, in test [3], the inhibition at 0.5 µM was 14.2%, the inhibition at 1 µM worked out at 19.2% and the inhibition at 5 µM was found to be 21%.
Turning to `O=C(Cc1cccc(Cl)c1)NC[C@@H](O)C[C@@H](Cc1ccccc1)C(=O)N[C@H]1c2ccccc2C[C@H]1O` [Compound A19], in test [1], the inhibition at 0.5 µM was 11.3%, the inhibition at 1 µM was 20.1% and the inhibition at 5 µM was found to be 17.2%. Further, the “% Activity” value in test [2] worked out at 21.85%. Also, in test [3], the inhibition at 0.5 µM worked out at 14.4%, the inhibition at 1 µM is 16% and the inhibition at 5 µM was 26.5%.
As to `O=C(CCN1C(=O)C=CC1=O)NC[C@@H](O)C[C@@H](Cc1ccccc1)C(=O)N[C@H]1c2ccccc2C[C@H]1O` [Compound A21], in test [1], the inhibition at 0.5 µM came to 9.9%, the inhibition at 1 µM was 15.2% and the inhibition at 5 µM was -3.1%. Further, in test [2], the “% Activity” value stood at 7.75%. For the same compound, in test [3], the inhibition at 0.5 µM came to 15.5%, the inhibition at 1 µM stood at 19% and the inhibition at 5 µM worked out at 18.6%.
As for `O=C(CCCCl)NC[C@@H](O)C[C@@H](Cc1ccccc1)C(=O)N[C@H]1c2ccccc2C[C@H]1O` [Compound A22], in test [1], the inhibition at 0.5 µM stood at 19.2%, the inhibition at 1 µM was determined as 24.3% and the inhibition at 5 µM stood at 21.1%. The “% Activity” value in test [2] was 18.5%. Also, in test [3], the inhibition at 0.5 µM was determined as 16.4%, the inhibition at 1 µM was 18.2% and the inhibition at 5 µM amounted to 15.9%.
Regarding `C#CCCCC(=O)NC[C@@H](O)C[C@@H](Cc1ccccc1)C(=O)N[C@H]1c2ccccc2C[C@H]1O` [Compound A23], in test [1], the inhibition at 0.5 µM is 45.8%, the inhibition at 1 µM amounted to 16.1% and the inhibition at 5 µM was determined as 25.8%. For the same compound, in test [2], the “% Activity” value stood at 26.2%. In test [3], the inhibition at 0.5 µM was found to be 20.8%, the inhibition at 1 µM was determined as 20.2% and the inhibition at 5 µM stood at 26.6%.
Take `C=Cc1ccc(C(=O)NC[C@@H](O)C[C@@H](Cc2ccccc2)C(=O)N[C@H]2c3ccccc3C[C@H]2O)cc1` [Compound A24]: in test [1], the inhibition at 0.5 µM was 2.3%, the inhibition at 1 µM came to 47.5% and the inhibition at 5 µM was determined as 1.8%. In test [2], the “% Activity” value is on record as 12.8%. Besides, in test [3], the inhibition at 0.5 µM worked out at 16.1%, the inhibition at 1 µM amounted to 16.5% and the inhibition at 5 µM was 23.8%.
On to `O=C(NC[C@@H](O)C[C@@H](Cc1ccccc1)C(=O)N[C@H]1c2ccccc2C[C@H]1O)c1ccc([N+](=O)[O-])cc1` [Compound A25], for which, in test [1], the inhibition at 0.5 µM was -0.5%, the inhibition at 1 µM was determined as 18.6% and the inhibition at 5 µM stood at 16.4%. Besides, the “% Activity” value in test [2] worked out at 18.75%. In addition, in test [3], the inhibition at 0.5 µM worked out at 14%, the inhibition at 1 µM worked out at 22.3% and the inhibition at 5 µM was determined as 21.1%.
